Measurements taken from patent US20120264810A1, “COMPOSITIONS AND METHODS FOR ENHANCING CELLULAR UPTAKE AND INTRACELLULAR DELIVERY OF LIPID PARTICLES” (The University of British Columbia, priority 2009, published 2012).

What was measured:
HeLa cells = assay: LNP uptake in HeLa cells (SPDiO fluorescence, Cellomics / confocal); type: cell-based, human; conditions: 30 nM ouabain, 24 hrs, confocal quantification
Procedure: All cell lines were seeded at 5000 to 20,000 cells/well of 96-well ViewPlate (PerkinElmer, Shelton, Conn., USA) in 100 μl of medium and were allowed to grow overnight. Fresh medium containing 5 or 10 μg/ml of siRNA encapsulated in LNP was added the next day. Small molecules were either added manually or pinned from 1000-fold stocks in DMSO using a pinning robot equipped with 0.4 mm pins (BioRobotics, Cambridge, UK). Cells were incubated for 24 h. Cells were then washed once in PBSCM (1×PBS containing […] CaCl2), fixed in 3% paraformaldehyde containing Hoescht's stain for 15 min, washed once in PBSCM and stored in 100 μl of PBSCM.
Plates were imaged using a Cellomics Arrayscan VTI HCS Reader (Thermo Scientific, Pittsburgh, Pa., USA). Images were acquired using a 20× PlanFluor objective and a XF93 filter set. Object identification and image analysis were performed using the Cellomics Compartmental Analysis algorithm. Cellular SPDiO and siRNA-Cy3 fluorescence intensities were measured for a minimum of 400 cells and the average pixel intensity was examined. For confocal microscopy, cells grown on glass coverslips were washed once in 1×PBS, fixed in 3% paraformaldehyde containing Hoechst's stain for 15 min, washed again and mounted on slides. Images were captured on an Olympus FV1000 (Olympus, Center Valley, Pa., USA) laser scanning microscope and cellular SPDiO fluorescence intensity was analyzed using ImageJ (NIH, http://rsb.info.nih.gov/ij/).

[1] = test system: GAPDH protein expression in LNCaP cells; assay: GAPDH siRNA-LN knockdown in LNCaP cells; type: cell-based, human; conditions: data not shown
Procedure: FIG. 5: Raw264.7 cells were treated for 24 hours with siRNACy3 encapsulated in DLinDMA LNs in the presence or absence of 5% CQ-lipid. A lipid label, SPDiO, was incorporated into the LN to monitor uptake. LN uptake was assessed by (A) SPDiO fluorescence and distribution of siRNA was assessed by (B) Cy3 fluorescence using the Cellomics ArrayScan VTI. (C) Raw264.7 cells were incubated with the same LN formulations as in (B) for 24 hours at 10 μg/mL siRNACy3. siRNACy3 distribution was examined by confocal microscopy. (D) GAPDH siRNA was formulated into LN particles comprising of 40% DLinDMA with 0% CQ-lipid or 40% DLinDMA with 5% CQ-lipid. Raw264.7 cells were treated with 5, 10 and 20 μg/mL of siRNA for 48 and 72 hours. GAPDH protein expression was assessed by western blotting against anti-GAPDH and anti-actin. (E) LNCaP cells were treated accordingly as in (D).
Perhaps most importantly, we wanted to determine whether the enhanced cytosolic distribution of siRNACy3 observed with the CQ-lipid correlated to enhanced gene knockdown. Glyceraldehyde 3-phosphate dehydrogenase (GAPDH) is an ubiquitously expressed cytosolic protein and therefore knockdown efficiency of encapsulated siRNA can be tested in different cell lines (Barber et al., 2005). Raw264.7 cells were treated with LN of varying concentration of GAPDH siRNA for 24, 48 and 72 hours. Total protein was isolated and analyzed for GAPDH levels by immunoblotting. […] The function of GAPDH siRNA was specific since actin expression was unaltered (FIG. 5D). To confirm the function of the CQ-lipid in the LN-siRNA-mediated gene knockdown, GAPDH silencing was also assessed in LNCaP cells (FIG. 5E).

[2] = biological target: rodent α1-isoform of Na+/K+-ATPase (Rattus norvegicus, UniProt P06685); conditions: cited from earlier work
[3] = biological target: human α1-isoform of Na+/K+-ATPase (Homo sapiens, UniProt P05023); conditions: cited from earlier work
[4] = test system: GAPDH expression in HeLa cells; assay: siGAPDH-LNP knockdown by immunoblotting in HeLa cells; type: cell-based, human
Procedure: HeLa cells were plated in twelve-well plates for indicated times. They were then washed in PBS and extracted in RIPA buffer (1% NP-40 and 0.5% Deoxycholic in 1×PBS) supplemented with protease inhibitor tablets (Roche Diagnostics). Total protein quantified by the Bradford Assay was analyzed by immunoblotting using antibodies to GAPDH, β-actin (Abcam, Cambridge, Mass.) or ATP1A1 ((Millipore, Billerica, Mass.). Antigen-antibody complexes in immunoblots were detected using Millipore Immobilon Western Chemiluminescent HRP Substrate (Millipore, Billerica, Mass.).
Knockdown effect of our LNP systems in the presence or absence of ouabain was also examined (FIG. 9B). GAPDH was chosen as a target gene since it is ubiquitously expressed at high levels in all cell types. siGAPDH or negative control siScramble was encapsulated in our LNP systems and incubated with cells for 24 hrs in the presence or absence of ouabain. Cells were further incubated in plain medium for 48 hrs before protein expression was analyzed. We observed that cells incubated continuously with ouabain for longer than 24 hrs were unhealthy (data not shown). […] It is noteworthy that LNP encapsulating siGAPDH or siScramble contained 1 mol % of PEG-s-DMG. […]

For C[C@@H]1O[C@@H](O[C@H]2C[C@@H](O)[C@]3(CO)[C@H]4[C@H](O)C[C@]5(C)[C@@H](C6=CC(=O)OC6)CC[C@]5(O)[C@@H]4CC[C@]3(O)C2)[C@H](O)[C@H](O)[C@H]1O [ouabain], the “cellular SPDiO fluorescence (LNP content) relative to untreated cells” value (HeLa cells) is listed as 2.5 times, the “GAPDH knockdown with ouabain” value [1] is listed as “enhanced GAPDH knockdown” and the “sensitivity to ouabain, less than human α1-isoform” value [2] is listed as 1000 fold. The sensitivity to ouabain [3] was “highly sensitive”, the “cell health on continuous incubation” value ([4]; incubated continuously with ouabain for longer than 24 hrs (data not shown)) was “unhealthy” and the “Expression of GAPDH” value ([4]; siGAPDH-LNP 10 ug/ml with 30 nM ouabain 24 h, then 48 hrs fresh medium) was “substantially reduced”.
